Drawing on ChEMBL document CHEMBL1152362, “Asperelines A-F, peptaibols from the marine-derived fungus Trichoderma asperellum” (J Nat Prod, 2009), this text covers IC50 and IC90 for 6 compounds.

In one assay the test system is Alternaria solani. As to the kind of experiment: Antimicrobial activity against Alternaria solani. The assay is classed as functional, organism-based.
The subject of a further assay is Pyricularia oryzae. In words: Antimicrobial activity against Pyricularia oryzae. The assay is classed as functional, organism-based.
The subject of a further assay is Staphylococcus aureus. In words: Antimicrobial activity against Staphylococcus aureus. The assay is classed as functional.
Another assay concerns Escherichia coli. In words: Antimicrobial activity against Escherichia coli. The format is functional.

Non-standard residues stand in square brackets, D forms with d. Residues, ends and D or L forms follow the SMILES beside them. *: point of attachment. Prolinol = OC[C@@H]1CCCN1*; Aib = CC(C)(N)C(=O)O Where only a bound is given, the exact number is not on record here.

Turning to `CC[C@@H](C)[C@H](NC(=O)C(C)(C)NC(=O)[C@@H](NC(=O)C(C)(C)NC(=O)C(C)(C)NC(C)=O)C(C)C)C(=O)NC(C)(C)C(=O)NC(C)(C)C(=O)N[C@@H](C)C(=O)NC(C)(C)C(=O)N1CCC[C@H]1CO` [ASPERELINE A], the IC50 with Alternaria solani and in the assay with Pyricularia oryzae was over 100 µg/mL in each case. For the same compound, the IC90 with Staphylococcus aureus and with Escherichia coli was over 500 µg/mL in each case.
Take `CC[C@@H](C)[C@H](NC(=O)C(C)(C)NC(=O)[C@@H](NC(=O)C(C)(C)NC(=O)[C@H](C)NC(C)=O)C(C)C)C(=O)NC(C)(C)C(=O)NC(C)(C)C(=O)N[C@@H](C)C(=O)NC(C)(C)C(=O)N1CCC[C@H]1CO` [ASPERELINE B]: the IC50 with Alternaria solani and in the assay on Pyricularia oryzae was over 100 µg/mL throughout. Besides, the 90% effect concentration (IC90) in the assay with Staphylococcus aureus and with Escherichia coli was over 500 µg/mL each time.
On to `CC[C@@H](C)[C@H](NC(=O)C(C)(C)NC(=O)[C@@H](NC(=O)C(C)(C)NC(=O)C(C)(C)NC(C)=O)C(C)C)C(=O)NC(C)(C)C(=O)N[C@@H](C)C(=O)N[C@@H](C)C(=O)NC(C)(C)C(=O)N1CCC[C@H]1CO` [ASPERELINE C], for which the IC50 in the assay on Alternaria solani and in the assay with Pyricularia oryzae was over 100 µg/mL in each case. In addition, the concentration for an effect of 90% (IC90) with Staphylococcus aureus and in the assay with Escherichia coli was over 500 µg/mL in each case.
On to `CC(=O)NC(C)(C)C(=O)NC(C)(C)C(=O)N[C@H](C(=O)NC(C)(C)C(=O)N[C@H](C(=O)NC(C)(C)C(=O)NC(C)(C)C(=O)N[C@@H](C)C(=O)NC(C)(C)C(=O)N1CCC[C@H]1CO)C(C)C)C(C)C` [ASPERELINE D] (Ac-[Aib][Aib]V[Aib]V[Aib][Aib]A[Aib]-Prolinol), for which the concentration for half-maximal inhibition (IC50) in the assay on Alternaria solani and in the assay on Pyricularia oryzae was over 100 µg/mL each time. In addition, the concentration for an effect of 90% (IC90) in the assay on Staphylococcus aureus and with Escherichia coli was over 500 µg/mL in each case.
Regarding `CC[C@@H](C)[C@H](NC(=O)C(C)(C)NC(=O)[C@@H](NC(=O)C(C)(C)NC(=O)C(C)(C)NC(C)=O)C(C)C)C(=O)NC(C)(C)C(=O)NC(C)(C)C(=O)N[C@@H](CO)C(=O)NC(C)(C)C(=O)N1CCC[C@H]1CO` [ASPERELINE E], the 50% inhibitory concentration (IC50) in the assay with Alternaria solani and in the assay with Pyricularia oryzae was over 100 µg/mL in each case. Besides, the concentration for an effect of 90% (IC90) with Staphylococcus aureus and in the assay with Escherichia coli was over 500 µg/mL in each case.
With `CC[C@@H](C)[C@H](NC(=O)C(C)(C)NC(=O)[C@@H](NC(=O)[C@@H](NC(=O)C(C)(C)NC(C)=O)C(C)C)C(C)C)C(=O)NC(C)(C)C(=O)NC(C)(C)C(=O)N[C@@H](C)C(=O)NC(C)(C)C(=O)N1CCC[C@H]1CO` [ASPERELINE F], the IC50 in the assay with Alternaria solani and with Pyricularia oryzae was over 100 µg/mL throughout. Moreover, the concentration for an effect of 90% (IC90) in the assay with Staphylococcus aureus and in the assay with Escherichia coli was over 500 µg/mL throughout.
